ChEMBL document CHEMBL3886567, “Fused tricyclic compounds as Raf kinase inhibitors” (2016)

Columns and labels:
[1] = biological target: RAF proto-oncogene serine/threonine-protein kinase (Homo sapiens, UniProt P04049, Y340D/Y341D); assay: (§1) Raf IC50 Assay: Compounds disclosed herein were tested against B-Raf (V600E) (PV3849, from Invitrogen) or C-Raf (Y340D/Y341D) (PV3805, from Invitrogen) in a time-resolved fluorescence energy transfer assay. The assay was carried out in reactions (10 uL) containing 0.0625 nM B-Raf or 0.5 nM C-Raf, 25 mM Tris pH7.4, 10 mM MgCl2, 0.5 mM EGTA, 0.5 mM […], 5 mM beta-glycerophosphate, 0.01% Triton X-100, 2.5 mM DTT, 0.1% BSA, 0.1 mM ATP, 13.7 nM GST-tagged MEK1 (Full-length protein with K97R mutation, recombinant protein purified from bacterial expression system) and 0-5 uM compounds disclosed herein (final concentration of 1% DMSO). The enzyme was incubated with the compounds at room temperature for 60 minutes and the reactions were initiated by the addition of ATP and GST-MEK1. After incubating at room temperature for 60 minutes, an equal volume of stop buffer containing 25 mM Tris pH7.4, 400 mM KF, 50 mM EDTA, 0.01% BSA, 0.01% Triton X-100, 1 test of Eu3+ Cryptate-conjugated rabbit polyclonal antibody anti-Phospho MEK1/2 (Ser217/221) and 1 test of d2-conjugated mouse monoclonal antibody anti-glutathione S-transferase was added to stop the reactions. Plates were sealed and incubated at room temperature for 2 hours, and then the TR-FRET signals were read on BMG PHERAstar FS instrument. The IC50 for each compound was calculated by non linear regression by Graphpad Prism software.
Chain of RAF proto-oncogene serine/threonine-protein kinase (P04049 whole entry Y340D/Y341D): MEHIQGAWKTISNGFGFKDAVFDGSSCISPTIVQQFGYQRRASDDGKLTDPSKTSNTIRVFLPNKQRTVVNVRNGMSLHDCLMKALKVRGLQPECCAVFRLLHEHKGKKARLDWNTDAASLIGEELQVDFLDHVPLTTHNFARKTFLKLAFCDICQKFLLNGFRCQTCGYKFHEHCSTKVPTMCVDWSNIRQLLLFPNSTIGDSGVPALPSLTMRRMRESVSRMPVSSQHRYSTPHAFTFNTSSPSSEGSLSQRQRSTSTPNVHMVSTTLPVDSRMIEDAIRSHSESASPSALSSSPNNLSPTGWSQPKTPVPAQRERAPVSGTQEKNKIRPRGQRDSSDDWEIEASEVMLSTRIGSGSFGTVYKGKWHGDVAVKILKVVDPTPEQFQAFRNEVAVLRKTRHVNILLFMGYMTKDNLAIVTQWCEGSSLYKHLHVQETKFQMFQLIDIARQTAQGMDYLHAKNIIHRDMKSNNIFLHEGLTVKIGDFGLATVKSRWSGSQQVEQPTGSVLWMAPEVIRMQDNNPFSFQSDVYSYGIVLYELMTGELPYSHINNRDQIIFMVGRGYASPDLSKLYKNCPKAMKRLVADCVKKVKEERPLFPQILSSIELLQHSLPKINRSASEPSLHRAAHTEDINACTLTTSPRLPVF

[2] = biological target: Serine/threonine-protein kinase B-raf (Homo sapiens, UniProt P15056, V600E); assay: as §1
Chain of Serine/threonine-protein kinase B-raf (P15056 2-766 V600E limits assumed): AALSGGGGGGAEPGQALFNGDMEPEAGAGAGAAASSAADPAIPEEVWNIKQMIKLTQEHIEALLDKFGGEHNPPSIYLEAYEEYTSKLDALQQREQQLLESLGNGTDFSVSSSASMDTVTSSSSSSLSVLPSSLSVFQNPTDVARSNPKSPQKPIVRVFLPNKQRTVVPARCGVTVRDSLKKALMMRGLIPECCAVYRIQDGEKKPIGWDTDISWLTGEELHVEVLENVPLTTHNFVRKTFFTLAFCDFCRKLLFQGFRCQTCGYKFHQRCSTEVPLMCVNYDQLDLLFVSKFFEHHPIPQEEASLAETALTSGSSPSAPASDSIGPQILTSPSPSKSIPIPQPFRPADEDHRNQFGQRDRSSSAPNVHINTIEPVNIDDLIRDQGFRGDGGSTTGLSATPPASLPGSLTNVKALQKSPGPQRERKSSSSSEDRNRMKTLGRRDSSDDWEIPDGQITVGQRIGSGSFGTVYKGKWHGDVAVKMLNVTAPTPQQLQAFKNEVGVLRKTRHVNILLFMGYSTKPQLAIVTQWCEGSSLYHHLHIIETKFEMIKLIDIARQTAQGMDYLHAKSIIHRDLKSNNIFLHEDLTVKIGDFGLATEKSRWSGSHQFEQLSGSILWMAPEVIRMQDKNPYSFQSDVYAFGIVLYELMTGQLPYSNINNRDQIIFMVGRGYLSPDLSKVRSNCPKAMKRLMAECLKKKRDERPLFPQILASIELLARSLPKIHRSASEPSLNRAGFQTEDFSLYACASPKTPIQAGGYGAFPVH

SMILES | IC50 [1] [nM] | IC50 [2] [nM]
O=C1CCc2c(Oc3ccc4c(c3)C3C(O4)C3c3nc4cc(Cl)c(C(F)(F)F)cc4[nH]3)ccnc2N1 (racemic) | 5 | 
O=C1CCc2c(Oc3ccc4c(c3)C3C(O4)C3c3nc4cccc(Cl)c4[nH]3)ccnc2N1 (racemic) | < 0.25 | 16
O=C1CCc2c(Oc3ccc4c(c3)C3C(O4)C3c3nc4ccc(-c5ccccc5)cc4[nH]3)ccnc2N1 (racemic) | 81 | 232
O=C1CCc2c(Oc3ccc4c(c3)C3C(C4)C3c3nc4ccc(C(F)(F)F)cc4[nH]3)ccnc2N1 (racemic) | 12 | 72
O=C1CCc2c(Oc3ccc4c(c3)C3C(O4)C3c3nc4ccc(C(F)(F)F)cc4[nH]3)ccnc2N1 (racemic) | 1.4 | 7.2
O=C1CCc2c(ncc(Cl)c2Oc2ccc3c(c2)C2C(O3)C2c2nc3ccc(C(F)(F)F)cc3[nH]2)N1 (racemic) | 432 | > 1000
